We go through three compounds from patent US20250353860A1, “PIPERIDINE CARBOXAMIDE AZAINDANE DERIVATIVE, METHOD FOR PREPARING SAME, AND USE THEREOF” (BRISE PHARMACEUTICALS CO., LTD., priority 2022, published 2025).

What is called AUC is concentration integrated over time. Read a high AUC as more exposure. Usually bioavailability stands for the share of a dose that reaches the circulation, judged against a reference dose that is usually intravenous. One may read the half-life as how long it takes for the measured level to halve. The term IC50 denotes the midpoint of a concentration-inhibition curve. A word on the Ki: it is the equilibrium dissociation constant of an inhibitor or competing ligand from its target.

A short description of data set [1]: Pharmacokinetics in SD rats by oral gavage. The class given is in vivo. Conditions: for AUC / bioavailability / half-life / Cmax: male, Sprague-Dawley, rat, plasma, PO 10 mg/kg; for bioavailability: read-out: Bioavailability F; for half-life: read-out: Half-life period T½ (converted); for Cmax: read-out: Plasma concentration Cmax; for Pharmacokinetic properties compared with Atogepant: conclusion in words. From the text: SD rats were used as test animals, and the LC/MS/MS method was used to determine the drug concentration in plasma at different times after gavage and intravenous […] of the compound of the application, so as to study the pharmacokinetic characteristics of the compound of the application in rats.
Positive control compound Atogepant, Example 1A and Example 3A of the present application;
Eighteen healthy adult Sprague Dawley (SD) male rats were purchased from Joinn (Suzhou) New Drug Research Center Co., Ltd.
An appropriate amount of the compound to be tested was weighed, added with 100% polyethylene glycol 400, and vortexed to dissolve the compound. After the preparation was completed, it would be a colorless and transparent solution with a concentration of 2 mg/mL.
An appropriate amount of the compound to be tested was weighed, added 90% polyethylene glycol 400 and 10% ethanol, and vortexed to dissolve the compound. After the preparation was completed, it would be a colorless and transparent solution with a concentration of 1 mg/mL.
Eighteen healthy adult SD male rats were fasted overnight and fed 4 hours after drug administration.
(§1) About 0.2 mL of blood was collected from the jugular vein before administration and 0.083 hours, 0.25 hours, 0.5 hours, 1 hour, 2 hours, 4 hours, 6 hours, 8 hours, 10 hours and 24 hours after administration, and anticoagulated with EDTA-K2. After blood samples were collected, they were placed in labeled ice-water bath centrifuge tubes and rapidly centrifuged to separate plasma. The centrifugation conditions were: 4000 rpm, 10 minutes, 4° C. The collected plasma was stored at below −40° C. for testing. The content of the tested compounds in the plasma of SD rats after gavage and intravenous administration of different compounds was determined by LC-MS/MS.

The nature of data set [2]: Pharmacokinetics in Cynomolgus monkeys by oral gavage. It is filed as in vivo. The note with it: for AUC / half-life / Cmax: male, cynomolgus monkey, plasma, PO 2 mg/kg; for half-life: read-out: Half-life T½ (converted); for Cmax: read-out: Plasma concentration Cmax; for Pharmacokinetic properties compared with Atogepant: conclusion in words. On the procedure:
The compounds of the present application were administered by gavage to cynomolgus monkeys as test animals, and the drug concentrations in plasma at different times were determined by LC/MS/MS to study the pharmacokinetic characteristics of the compounds of the present application […].
• Positive control compound Atogepant, Example 1A and Example 3A of the present application; • Six healthy adult male Cynomolgus monkeys, Kangshun Biotechnology Co., Ltd.
An appropriate amount of the compound to be tested was weighed, added with 100% polyethylene glycol 400, and vortexed to dissolve the compound. After the preparation was completed, it would be a colorless and transparent solution with a concentration of 1 mg/mL.
Six healthy adult male cynomolgus monkeys were fasted overnight and fed 4 hours after drug administration.
as §1, with “and” for “and 0.083 hours,”, “test compound” for “tested compounds”, “Cynomolgus monkeys” for “SD rats”, “gavage” for “gavage and intravenous administration”

Data set [3] addresses T1, CGRP receptor (Homo sapiens, UniProt O60894+Q16602). Kind of data set: Inhibition of CGRP signaling pathway (cAMP, HTRF) in CHO-K1 cells expressing human CGRP receptors. Details: host or cells: CHO-K1. The note with it: [α-CGRP]=10 ng/ml; increase in cAMP levels; read-out: IC50 of the inhibitory effect on the CGRP signaling pathway in CHO-K1 cells expressing human CGRP receptors. The class given is cell-based. As for the experimental part: The inhibitory effect of the CGRP signaling pathway in vitro is evaluated by measuring the cAMP level. The principle is that after CGRP binds to the CGRP receptor, the CGRP signaling pathway is activated, inducing an increase in the cAMP level. […] The specific experimental method is as follows:
CHO-K1 cells expressing human CGRP receptor (CGRPR/CHO-K1, PerkinElmer, ES-420-C) were cultured in F12K+10% FBS+400 μg/mL G418+10 μg/mL Blasticidin medium, and the cells were collected in the logarithmic growth phase. According to the instructions of the kit, the cells were resuspended in Stimulation Buffer comprising 0.5 mM IBMX, and 5 μL of the cell suspension was added to each well of a 96-well microplate (Cisbio, 66PL96025) at a cell density of 15,000 cells/well. 2.5 μL of gradient diluted compound solution was added to each well. After incubation at 37° C. for 30 minutes, 2.5 μL of 40 ng/ml human α-CGRP (Bachem, H-1470,0500) diluted in Stimulation Buffer comprising 0.5 mM IBMX was added to each well to a final concentration of 10 ng/ml. After incubation at 37° C. for 30 minutes, 5 μL of Anti-cAMP-Cryptate solution and 5 μL of cAMP-d2 solution were added to each well. After incubation at room temperature for 60 minutes, the HTRF signal was read using a microplate reader (Molecular Devices). Graphpad Prism was used to calculate the IC50 value of the compound's inhibitory effect on the increase in cAMP levels based on the compound concentration and HTRF signal.

Data set [4] addresses T1, CGRP receptor. Kind of data set: Affinity for human CGRP receptor ([125I]h-CGRPα competition, CHO cell membranes). It is filed as binding. The note with it: 0.03 nM [125I]h-CGRPα; Cheng Prusoff; read-out: Ki of the affinity determination to human CGRP receptor. On the set-up: host or cells: CHO-K1. As for the experimental part: The cell membrane homogenate of CHO cells expressing human CGRP receptor (comprising 16 μg of protein) was incubated with 0.03 nM [^125I]h-CGRPα and gradiently diluted test samples in buffer (50 mM Hepes-NaOH (pH 7.4), 10 mM MgCl2, 4 mM KCl, 10 mM […], 1 mM EDTA, 1 μM phosphorylation amide, 0.3% BSA and 0.04% bacitracin) at 22° C. for 90 minutes. A control group without the test sample was set up to obtain the highest binding signal of the experiment, and the non-specific binding of the experiment was determined by adding 1 μM non-isotope-labeled h-CGRPα to the control group. After the incubation, a glass fiber filter (GF/B, Packard) soaked with 0.3% PEI was placed in a 96-well cell collector (Unfilter, Packard), and the sample was quickly filtered under vacuum and rinsed several times with precooled buffer comprising 50 mM Tris-HCl and 150 mM NaCl. After the filter was dried, scintillation fluid (Microscint 0, Packard) was added and the radioactive signal value was measured using a scintillation counter (Topcount, Packard). The results are expressed as the percentage of inhibition of specific binding of the radioligand. Non-isotope labeled h-CGRPα was used as a standard sample as a control. The test samples and standard samples were tested at multiple concentrations to obtain a competition curve with [^125I]h-CGRPα, thereby calculating the IC50) 20 of each sample. The inhibition constant Ki was further calculated using the Cheng Prusoff equation: Ki=IC50/(1+L/KD), wherein L represents the concentration of [^125I]h-CGRPα in the system (0.03 nM), and KD represents the dissociation constant between [^125I]h-CGRPα and the human CORP receptor in the system (0.06 nM).

Consider `C[C@@H]1[C@H](c2c(F)ccc(F)c2F)C[C@H](NC(=O)c2cnc3c(c2)C[C@@]2(C3)C(=O)Nc3ncccc32)C(=O)N1CC(F)(F)F` [Atogepant, reference compound], for which, in data set [1], the AUC came to 2440 ± 1400 ng·h/mL, the bioavailability is 12.5 ± 7.3%, the half-life is 1.6 ± 0.3 h and the Cmax is 560 ± 233 ng/mL. In data set [2], the exposure (AUC) was 396 ± 42 ng·h/mL, the half-life was 1.5 ± 0.1 h and the Cmax was 108 ± 18 ng/mL. For the same compound, in data set [3], the IC50 worked out at 1.5 nM. Further, the Ki in data set [4] stood at 0.0098 nM.
Turning to `C[C@@H]1[C@H](c2c(F)ccc(F)c2F)C[C@H](NC(=O)c2cc3c(o2)CC[C@]2(C3)C(=O)Nc3ncccc32)C(=O)N1CC(F)(F)F` [Example 1A, (R)—N-((3S,5S,6R)-6-methyl-2-oxo-1-(2,2,2-trifluoroethyl)-5-(2,3,6-trifluorophenyl)piperidin-3-yl)-2′-oxo-1′,2′,6,7-tetrahydro-4H-spiro[benzofuran-5,3′-pyrrolo[2,3-b]pyridine]-2-carboxamide], in data set [1], the “Pharmacokinetic properties compared with Atogepant” value was “good pharmacokinetic properties”, the area under the curve (AUC) worked out at 23200 ± 7950 ng·h/mL, the bioavailability amounted to 38.6 ± 13.3% and the half-life was 2.93 ± 0.6 h. Also, the Cmax in data set [1] was 3850 ± 1460 ng/mL. Further, in data set [2], the “Pharmacokinetic properties compared with Atogepant” value is on record as “good pharmacokinetic properties”, the area under the curve (AUC) was found to be 1840 ± 1190 ng·h/mL, the half-life was 3.77 ± 0.2 h and the Cmax is 294 ± 166 ng/mL. For the same compound, in data set [3], the IC50 was found to be 14.5 nM. Also, the Ki in data set [4] was determined as 0.017 nM.
For `C[C@@H]1[C@H](c2c(F)ccc(F)c2F)C[C@H](NC(=O)c2cc3c(s2)C[C@]2(C3)C(=O)Nc3ncccc32)C(=O)N1CC(F)(F)F` [Example 3A, (S)—N-((3S,5S,6R)-6-methyl-2-oxo-1-(2,2,2-trifluoroethyl)-5-(2,3,6-trifluorophenyl)piperidin-3-yl)-2′-oxo-1′,2′,4,6-tetrahydrospiro[cyclopenta[b]thiophene-5,3′-pyrrolo[2,3-b]pyridine]-2-carboxamide], in data set [1], the “Pharmacokinetic properties compared with Atogepant” value is “good pharmacokinetic properties”, the AUC was determined as 42500 ± 8520 ng·h/mL, the bioavailability stood at 90.5 ± 19.1% and the half-life was 1.62 ± 0.2 h. Further, the Cmax in data set [1] amounted to 10500 ± 3730 ng/mL. In addition, in data set [2], the “Pharmacokinetic properties compared with Atogepant” value is listed as “good pharmacokinetic properties”, the AUC was determined as 3590 ± 742 ng·h/mL, the half-life is 2.96 ± 0.3 h and the Cmax is 778 ± 144 ng/mL. For the same compound, the 50% inhibitory concentration (IC50) in data set [3] amounted to 2.9 nM. Also, the Ki in data set [4] amounted to 0.019 nM.
